According to the supplement of paper PMC7695840:
“And” between values parts separate entries of the source, which are not always exact repeats. Equal entries are not always repeated. Structures can show the parent of a compound that is named as a salt.

Key:
[1] = system: Staphylococcus aureus MW2 (mecA+); assay: IC50 (growth, competition assay); settings: cefoxitin: subinhibitory
Procedure, shortened: (§1)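 Two fluorescent S. aureus MW2 strains, one carrying and one lacking the resistance gene, were pre-induced, mixed 1:1 and grown unshaken in LB in 1536-well plates for 20 h at 37 °C and 90% humidity with a subinhibitory drug dose set each day. Compounds were tested on five- or nine-point 2-fold gradients in two dye-swapped replicates. DsRed (540/590) and GFP (485/520) signals were scaled per plate between the medians of single-strain controls, and No Treatment was then set to 0.5. For each strain, IC50 was taken as the dose that halved the No Treatment signal, or else the maximal signal.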

[2] = system: Staphylococcus aureus MW2 delta-mecA (mecA-); assay: IC50 (growth, competition assay); settings: cefoxitin: subinhibitory
Procedure, shortened: as §1

SMILES	IC50 ([1]; fluorescent label: DsRed)	IC50 ([1]; fluorescent label: GFP)	IC50 ([2]; fluorescent label: DsRed)	IC50 ([2]; fluorescent label: GFP) [µM]
CC(=O)NC[C@H]1CN(c2ccc(N3CCOCC3)c(F)c2)C(=O)O1 [Linezolid]	< 9.85 µM	< 9.85 µM	< 9.85 µM	< 9.85
CCn1cc(C(=O)O)c(=O)c2cc(F)c(N3CCNC(C)C3)c(F)c21 (stereo not given) [Lomefloxacin hydrochloride (Maxaquin)]	1.76 µM	1.78 µM	0.56 µM	< 0.498
CCn1cc(C(=O)O)c(=O)c2cc(F)c(N3CCNC(C)C3)c(F)c21 (stereo not given) [Lomefloxacin hydrochloride]	< 9.85 µM	< 9.85 µM	< 9.85 µM	< 9.85
O=C(O)c1nn(Cc2ccc(Cl)cc2Cl)c2ccccc12 [Lonidamine]	27.7 µM	78.2 µM	22.4 µM	15
CN(C)C(=O)C(CCN1CCC(O)(c2ccc(Cl)cc2)CC1)(c1ccccc1)c1ccccc1 [Loperamide hydrochloride]	103 µM	109 µM	31.4 µM	39
O=c1cc(-c2ccc(O)c(O)c2)oc2cc(O)cc(O)c12 [Luteolin]	57 µM	56.6 µM	27.6 µM	20
C[C@H]1[C@H](C)CC[C@]2(C(=O)O)CC[C@]3(C)C(=CC[C@@H]4[C@@]5(C)C[C@@H](O)[C@H](O)[C@@](C)(CO)[C@@H]5[C@H](O)C[C@]43C)[C@H]12 [MADECASSIC ACID]	53.8 µM	54.5 µM	47.8 µM	30
Cn1nnnc1SCC1=C(C(=O)O)N2C(=O)[C@@H](NC(=O)[C@H](OC=O)c3ccccc3)[C@H]2SC1 [MANDOL]	21.3 µM	22.2 µM	< 9.85 µM	< 9.85
C=C1c2c(Cl)ccc(O)c2C(=O)C2=C(O)[C@]3(O)C(=O)C(C(N)=O)=C(O)[C@@H](N(C)C)[C@@H]3[C@@H](O)[C@H]12.O=C(O)c1cc(S(=O)(=O)O)ccc1O [MECLAN]	< 9.85 µM	< 9.85 µM	< 9.85 µM	< 9.85
CSc1ccc2c(c1)N(CCC1CCCCN1C)c1ccccc1S2 (stereo not given) [MELLARIL]	66.9 µM	87.4 µM	18.9 µM	13.9
C[C@@H](O)[C@H]1C(=O)N2C(C(=O)O)=C(S[C@@H]3CN[C@H](C(=O)N(C)C)C3)[C@H](C)[C@H]12 [MERREM]	89.8 µM	98.4 µM	16 µM	11.8
C[CH2][Hg][S]c1ccccc1C(=O)[O-].[Na+] [MERTHIOLATE]	< 9.85 µM	< 9.85 µM	< 9.85 µM	< 9.85
CN1C[C@H](CNC(=O)OCc2ccccc2)C[C@@H]2c3cccc4c3c(cn4C)C[C@H]21 [METERGOLINE]	50.7 µM	53.6 µM	16.8 µM	15.9
COC(=O)CC[C@@H](C)[C@H]1CC[C@H]2[C@@H]3CC[C@@H]4C[C@H](O)CC[C@]4(C)[C@H]3C[C@H](O)[C@]12C [METHYL DEOXYCHOLATE]	15.4 µM	26.9 µM	13.9 µM	9.91
COC(=O)/C(C)=C\C[C@@]12OC(C)(C)[C@@H]3C[C@@H](C=C4C(=O)c5c(O)c6c(c(CC=C(C)C)c5O[C@]431)O[C@](C)(CCC=C(C)C)C=C6)C2=O [METHYL GAMBOGATE]	56.8 µM	66.4 µM	12.8 µM	22.9
CSc1ccc2c(c1)C(N1CCN(C)CC1)Cc1ccccc1S2 (stereo not given) [METITEPINE MESYLATE]	56.9 µM	84.8 µM	30.8 µM	17.8
CCCCCCCc1ccc(CCc2cccc(O)c2C(=O)O)cc1 [MG 149]	13.6 µM	14.5 µM	< 9.85 µM	< 9.85
CC[C@H]1OC(=O)C[C@@H](O)[C@H](C)[C@@H](O[C@@H]2O[C@H](C)[C@@H](O)[C@H](N(C)C)[C@H]2O)[C@@H](CCN2C[C@H](C)C[C@H](C)C2)C[C@@H](C)C(=O)/C=C/C(C)=C/[C@@H]1CO[C@@H]1O[C@H](C)[C@@H](O)[C@@H](OC)[C@H]1OC [MICOTIL]	18.8 µM	28.3 µM	13.4 µM	< 9.85
CCCCCCCCCCCCCCCCOP(=O)([O-])OCC[N+](C)(C)C [MILTEX]	35.2 µM	33.7 µM	31.1 µM	28.1
CCN1C[C@H](C)n2c(c(O)c3c(=O)n(Cc4ccc(F)c(Cl)c4)nc(C(=O)NC)c32)C1=O [MK-2048]	80.3 µM	64 µM	39.3 µM	40.9

SMILES	IC50 ([1]; fluorescent label: DsRed)	IC50 ([1]; fluorescent label: GFP)	IC50 ([2]; fluorescent label: DsRed)	IC50 ([2]; fluorescent label: GFP) [µM]
Cc1cnc(-c2ccccc2C(C)C)nc1NCc1ccc(-n2ccnn2)cc1 [ML323]	35.3 µM	49.6 µM	< 9.85 µM	< 9.85
O=C(O)c1ccc(Nc2ncc3c(n2)-c2ccc(Cl)cc2C(c2c(F)cccc2F)=NC3)cc1 [MLN8054]	13.7 µM	24.9 µM	3.89 µM	2.45
COc1cc(Nc2ncc3c(n2)-c2ccc(Cl)cc2C(c2c(F)cccc2OC)=NC3)ccc1C(=O)O [MLN8237 (Alisertib)]	12.4 µM	27.5 µM	< 9.85 µM	< 9.85
O=[N+]([O-])C=Cc1ccc2c(c1)OCO2 [MNS]	20.5 µM	27.1 µM	< 9.85 µM	< 9.85
Clc1ccc(COC(Cn2ccnc2)c2ccc(Cl)cc2Cl)c(Cl)c1 (stereo not given) [MONISTAT]	< 9.85 µM	< 9.85 µM	< 9.85 µM	< 9.85
O=C(O)C1=C(CSc2nnnn2CS(=O)(=O)O)CS[C@@H]2[C@H](NC(=O)[C@H](O)c3ccccc3)C(=O)N12 [MONOCID]	98.3 µM	109 µM	< 9.85 µM	< 9.85
CO[C@@]1(NC(=O)C(C(=O)O)c2ccc(O)cc2)C(=O)N2C(C(=O)O)=C(CSc3nnnn3C)CO[C@@H]21 (stereo not given in full) [MOXAM]	26.2 µM	18.5 µM	< 9.85 µM	< 9.85
CO[C@@]12[C@H](COC(N)=O)C3=C(C(=O)C(C)=C(N)C3=O)N1C[C@@H]1N[C@@H]12 [MUTAMYCIN]	< 9.85 µM	< 9.85 µM	< 9.85 µM	< 9.85
c1ccc(-c2ccc(C(c3ccccc3)n3ccnc3)cc2)cc1 (stereo not given) [MYCOSPOR]	15.5 µM	19.1 µM	16.8 µM	10.5
C=CCc1ccc(O)c(-c2cc(CC=C)ccc2O)c1 [Magnolol]	40.1 µM	49.9 µM	12 µM	8.24
CN1CCN(c2c(F)cc3c(=O)c(C(=O)O)cn4c3c2OCN4C)CC1 [Marbofloxacin]	6.41 µM	6.33 µM	2.09 µM	1.19
C=C1c2cccc(O)c2C(=O)C2=C(O)[C@]3(O)C(=O)C(C(N)=O)=C(O)[C@@H](N(C)C)[C@@H]3[C@@H](O)[C@H]12 [Methacycline hydrochloride (Physiomycine)]	0.702 µM	0.644 µM	< 0.498 µM	< 0.498
CSc1ccc2c(c1)C(N1CCN(C)CC1)Cc1ccccc1S2 (stereo not given) [Methiothepin mesylate]	56.7 µM	55.3 µM	21.3 µM	19.1
COCC(=O)O[C@]1(CCN(C)CCCc2nc3ccccc3[nH]2)CCc2cc(F)ccc2[C@@H]1C(C)C [Mibefradil dihydrochloride]	41.1 µM	51.9 µM	16.4 µM	11.2
CCCCCCCCCCCCCCCCOP(=O)([O-])OCC[N+](C)(C)C [Miltefosine (Hexadecylphosphocholine)]	> 150 µM	> 150 µM	36.2 µM	56.8
CN(C)c1ccc(O)c2c1C[C@H]1C[C@H]3[C@H](N(C)C)C(O)=C(C(N)=O)C(=O)[C@@]3(O)C(O)=C1C2=O [Minocycline hydrochloride]	< 9.85 µM	< 9.85 µM	< 9.85 µM	< 9.85
CC[C@@]1([C@@H]2O[C@@H]([C@H]3O[C@@](O)(CO)[C@H](C)C[C@@H]3C)C[C@@H]2C)CC[C@H]([C@]2(C)CC[C@]3(C[C@H](O)[C@@H](C)[C@@H]([C@@H](C)[C@@H](OC)[C@H](C)C(=O)O)O3)O2)O1 [Monensin sodium salt (Coban)]	2.46 µM and < 9.85 µM	8.62 µM and 13.9 µM	3.16 µM and < 9.85 µM	< 0.498
COc1c(N2C[C@@H]3CCCN[C@@H]3C2)c(F)cc2c(=O)c(C(=O)O)cn(C3CC3)c12 [Moxifloxacin hydrochloride]	< 0.498 µM	< 0.498 µM	< 0.498 µM	< 0.498
Cc1ccc(S(=O)(=O)N[C@@H](Cc2ccccc2)C(=O)CCl)cc1 [N-p-Tosyl-L-phenylalanine chloromethyl ketone]	< 9.85 µM	< 9.85 µM	< 9.85 µM	< 9.85
CCOc1ccc2ccccc2c1C(=O)N[C@@H]1C(=O)N2[C@@H]1SC(C)(C)[C@@H]2C(=O)O [NALLPEN]	< 9.85 µM	< 9.85 µM	< 9.85 µM	< 9.85
